Reference: publication PMC12191924, “A new naphthalene-based fluorogenic substrate for cytochrome P450 4A11” (Biochemical Journal, 2025)
Where “and” joins values, the source holds several entries; their conditions need not be identical. Identical values can stand only once.

Key:
CYP1A2 = target: T1, CYP1A2 (Homo sapiens, UniProt P05177); test: MONACRA demethylation by recombinant CYP1A2 in Supersomes, high-throughput fluorimetric assay; type: biochemical; design: purchased Gentest (Supersomes), now a part of Discovery Life Sciences; CYP1A2 is not in the lot list; host or cells: insect cells, recombinant baculovirus
T1 sequence (P05177 2-516 limits assumed): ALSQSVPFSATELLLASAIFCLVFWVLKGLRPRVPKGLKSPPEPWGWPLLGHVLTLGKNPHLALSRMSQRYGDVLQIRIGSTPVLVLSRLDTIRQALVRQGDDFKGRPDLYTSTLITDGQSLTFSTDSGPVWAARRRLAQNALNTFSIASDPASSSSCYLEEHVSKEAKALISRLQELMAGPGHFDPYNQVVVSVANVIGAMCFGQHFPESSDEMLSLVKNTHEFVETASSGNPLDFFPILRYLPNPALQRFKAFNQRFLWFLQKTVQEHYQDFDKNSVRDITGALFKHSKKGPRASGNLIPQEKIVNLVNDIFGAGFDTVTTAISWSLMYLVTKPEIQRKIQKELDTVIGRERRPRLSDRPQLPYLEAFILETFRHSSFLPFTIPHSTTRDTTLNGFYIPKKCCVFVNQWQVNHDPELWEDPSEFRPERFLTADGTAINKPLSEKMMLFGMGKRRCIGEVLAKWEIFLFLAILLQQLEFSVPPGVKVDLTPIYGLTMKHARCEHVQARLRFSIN
Description: (§1) Based on these observations, we developed a high-throughput automated assay applicable for studying SSPs of MONACRA metabolism by microsomal P450 enzymes. In this procedure, the incubation mixtures containing an NADPH-generating system and various substrate concentrations are placed in a multiwell plate and preincubated at 30°C in a thermostated shaker. The reaction is started by adding microsomal suspension to the final concentration of 0.3–1 mg/ml of microsomal protein or 0.02–0.1 µM of recombinant P450 enzymes in Supersomes. Following the incubation for 20 min at 30°C, the reaction is quenched by adding trichloroacetic acid (final concentration […]). After supplementing the wells with Na-glycine buffer (pH 10.4, final concentration 2.1 M), the plates are subjected to scanning the fluorescence spectra with excitation at 375 nm. This assay, which is described in detail in Materials and Methods, allows reliable detection of the concentrations of HONACRA as low as 0.1 µM.
(§2) We used the high-throughput activity assay described above to probe MONACRA metabolism by 16 human microsomal P450 enzymes, namely CYP1A2, CYP2A6, CYP2B6, CYP2C8, CYP2C9, CYP2C19, CYP2D6, CYP2E1, CYP2J2, CYP3A4, CYP3A5, CYP4A11, CYP4F2, CYP4F3A, CYP4F3B, and CYP4F12. […]

CYP4A11 = target: T2, CYP4A11 (Homo sapiens, UniProt Q02928); test: MONACRA demethylation by recombinant CYP4A11 in Supersomes, high-throughput fluorimetric assay; type: biochemical; design: purchased Gentest (Huntsville, AL), now a part of Discovery Life Sciences lot 2402280; host or cells: insect cells, recombinant baculovirus; conditions: Michaelis–Menten fit, ± = confidence interval P=0.05
T2 sequence (Q02928 5-519): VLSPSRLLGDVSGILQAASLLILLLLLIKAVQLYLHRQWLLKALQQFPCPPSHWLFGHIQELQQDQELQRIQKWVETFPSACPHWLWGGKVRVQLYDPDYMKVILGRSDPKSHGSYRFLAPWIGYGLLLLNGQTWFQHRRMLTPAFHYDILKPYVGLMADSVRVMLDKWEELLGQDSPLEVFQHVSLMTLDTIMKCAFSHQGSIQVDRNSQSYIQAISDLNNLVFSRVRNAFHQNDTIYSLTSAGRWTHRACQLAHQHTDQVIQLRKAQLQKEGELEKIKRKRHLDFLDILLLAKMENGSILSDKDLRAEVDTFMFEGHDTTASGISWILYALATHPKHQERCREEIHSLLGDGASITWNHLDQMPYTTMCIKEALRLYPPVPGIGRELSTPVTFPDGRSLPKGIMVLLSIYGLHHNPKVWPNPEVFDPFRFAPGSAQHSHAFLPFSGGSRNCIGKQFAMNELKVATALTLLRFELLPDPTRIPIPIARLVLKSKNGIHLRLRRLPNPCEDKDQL
Description: as §1, §2

Vmax (CYP1A2; substrate inhibition equation): 43.7 ± 5.9 min⁻¹ | Ksi (substrate inhibition constant) (CYP1A2; substrate inhibition equation (eqn 2)): 650 ± 200 µM and 648 ± 197 µM | Vmax (CYP4A11): 66.8 ± 17.5 min⁻¹
SMILES: COc1ccc2cc(C=CC(=O)O)ccc2c1 [MONACRA, 3-(6-methoxynaphthalen-2-yl)acrylic acid]
